Reference: US10052320B2, “Substituted quinoxalines as FGFR kinase inhibitors” (ASTEX THERAPEUTICS LIMITED, priority 2011, dated 2018)

Experiments:
[1] = molecular target: T1, Ba/F3-Flt3-transfected cells (Homo sapiens, UniProt P36888, cells depend on it, form not given); assay: Ba/F3-Flt3 (minus IL3) cellular proliferation assay, Alamar Blue; assay type: cell-based; conditions: minus IL3
T1 sequence (P36888 1-993): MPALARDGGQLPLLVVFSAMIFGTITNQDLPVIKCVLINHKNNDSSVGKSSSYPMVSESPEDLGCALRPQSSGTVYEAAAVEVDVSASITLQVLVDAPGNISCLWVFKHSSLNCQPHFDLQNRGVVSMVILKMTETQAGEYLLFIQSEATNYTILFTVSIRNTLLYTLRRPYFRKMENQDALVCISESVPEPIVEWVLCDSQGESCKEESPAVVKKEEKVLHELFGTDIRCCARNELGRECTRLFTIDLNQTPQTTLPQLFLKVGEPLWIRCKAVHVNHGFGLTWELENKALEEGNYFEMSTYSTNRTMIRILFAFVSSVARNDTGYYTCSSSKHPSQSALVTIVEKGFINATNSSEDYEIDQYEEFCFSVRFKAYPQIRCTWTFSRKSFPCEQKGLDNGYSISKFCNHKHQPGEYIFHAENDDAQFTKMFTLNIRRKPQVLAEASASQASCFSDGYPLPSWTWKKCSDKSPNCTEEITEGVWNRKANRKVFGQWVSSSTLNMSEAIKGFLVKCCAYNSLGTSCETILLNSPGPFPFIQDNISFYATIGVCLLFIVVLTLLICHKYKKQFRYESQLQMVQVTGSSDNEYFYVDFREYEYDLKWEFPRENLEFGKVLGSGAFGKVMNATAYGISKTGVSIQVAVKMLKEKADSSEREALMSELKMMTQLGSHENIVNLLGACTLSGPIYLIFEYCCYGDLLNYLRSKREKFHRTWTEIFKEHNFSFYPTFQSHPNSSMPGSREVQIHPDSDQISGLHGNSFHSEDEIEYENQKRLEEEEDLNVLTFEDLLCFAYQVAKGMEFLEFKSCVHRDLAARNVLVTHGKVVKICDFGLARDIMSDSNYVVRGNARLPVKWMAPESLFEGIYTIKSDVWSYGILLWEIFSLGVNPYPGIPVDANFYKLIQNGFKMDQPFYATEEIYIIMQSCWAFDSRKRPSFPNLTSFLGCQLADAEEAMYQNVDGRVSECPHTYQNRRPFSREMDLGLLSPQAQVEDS

[2] = molecular target: FGFR1 (h) (Homo sapiens, UniProt P11362); assay: FGFR1 (enzymatic assay), TR-FRET; assay type: biochemical; conditions: read-out: FGFR 1 pIC50 (converted)
FGFR1 (h), sequence (P11362 22-822): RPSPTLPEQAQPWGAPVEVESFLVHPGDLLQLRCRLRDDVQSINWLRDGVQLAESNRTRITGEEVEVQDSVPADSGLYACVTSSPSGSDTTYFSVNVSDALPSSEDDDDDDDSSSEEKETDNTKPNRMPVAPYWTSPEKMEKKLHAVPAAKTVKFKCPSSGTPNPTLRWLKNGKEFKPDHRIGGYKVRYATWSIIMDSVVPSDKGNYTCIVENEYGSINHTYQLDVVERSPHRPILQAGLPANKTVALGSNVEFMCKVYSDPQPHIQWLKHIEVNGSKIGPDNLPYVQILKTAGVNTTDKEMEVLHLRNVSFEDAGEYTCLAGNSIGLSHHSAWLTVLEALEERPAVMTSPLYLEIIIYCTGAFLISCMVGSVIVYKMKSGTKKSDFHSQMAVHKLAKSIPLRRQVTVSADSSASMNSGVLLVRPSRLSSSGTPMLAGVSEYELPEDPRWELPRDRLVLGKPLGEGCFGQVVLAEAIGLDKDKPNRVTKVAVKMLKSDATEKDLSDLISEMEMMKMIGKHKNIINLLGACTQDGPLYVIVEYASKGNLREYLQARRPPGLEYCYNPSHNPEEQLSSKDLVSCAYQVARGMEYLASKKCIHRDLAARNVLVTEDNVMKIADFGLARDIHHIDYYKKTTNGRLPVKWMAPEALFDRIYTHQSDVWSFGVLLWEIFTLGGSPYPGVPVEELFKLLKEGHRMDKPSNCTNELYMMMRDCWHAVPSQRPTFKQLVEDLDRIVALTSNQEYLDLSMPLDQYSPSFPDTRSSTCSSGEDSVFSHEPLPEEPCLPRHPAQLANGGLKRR
Experimental: In a final reaction volume of 30 μL, FGFR1 (h) (25 ng/ml) was incubated with 50 mM HEPES pH 7.5, 6 mM MnCl2, 1 mM DTT, 0.1 mM Na3VO4, 0.01% Triton-X-100, 500 nM Btn-Flt3 and 5 μM ATP in the presence of compound (1% DMSO final). […] Time-Resolved Fluorescence Resonance Energy Transfer (TR-FRET) signal (ex340 nm. Em 620 nm, em 655 nm) was measured afterwards and results are expressed in RFU (Relative Fluorescence Units).

[3] = molecular target: KDR (h) (VEGFR2) (Homo sapiens, UniProt P35968); assay: KDR (VEGFR2) (enzymatic assay), TR-FRET; assay type: biochemical
KDR (h) (VEGFR2), sequence (P35968 20-1356): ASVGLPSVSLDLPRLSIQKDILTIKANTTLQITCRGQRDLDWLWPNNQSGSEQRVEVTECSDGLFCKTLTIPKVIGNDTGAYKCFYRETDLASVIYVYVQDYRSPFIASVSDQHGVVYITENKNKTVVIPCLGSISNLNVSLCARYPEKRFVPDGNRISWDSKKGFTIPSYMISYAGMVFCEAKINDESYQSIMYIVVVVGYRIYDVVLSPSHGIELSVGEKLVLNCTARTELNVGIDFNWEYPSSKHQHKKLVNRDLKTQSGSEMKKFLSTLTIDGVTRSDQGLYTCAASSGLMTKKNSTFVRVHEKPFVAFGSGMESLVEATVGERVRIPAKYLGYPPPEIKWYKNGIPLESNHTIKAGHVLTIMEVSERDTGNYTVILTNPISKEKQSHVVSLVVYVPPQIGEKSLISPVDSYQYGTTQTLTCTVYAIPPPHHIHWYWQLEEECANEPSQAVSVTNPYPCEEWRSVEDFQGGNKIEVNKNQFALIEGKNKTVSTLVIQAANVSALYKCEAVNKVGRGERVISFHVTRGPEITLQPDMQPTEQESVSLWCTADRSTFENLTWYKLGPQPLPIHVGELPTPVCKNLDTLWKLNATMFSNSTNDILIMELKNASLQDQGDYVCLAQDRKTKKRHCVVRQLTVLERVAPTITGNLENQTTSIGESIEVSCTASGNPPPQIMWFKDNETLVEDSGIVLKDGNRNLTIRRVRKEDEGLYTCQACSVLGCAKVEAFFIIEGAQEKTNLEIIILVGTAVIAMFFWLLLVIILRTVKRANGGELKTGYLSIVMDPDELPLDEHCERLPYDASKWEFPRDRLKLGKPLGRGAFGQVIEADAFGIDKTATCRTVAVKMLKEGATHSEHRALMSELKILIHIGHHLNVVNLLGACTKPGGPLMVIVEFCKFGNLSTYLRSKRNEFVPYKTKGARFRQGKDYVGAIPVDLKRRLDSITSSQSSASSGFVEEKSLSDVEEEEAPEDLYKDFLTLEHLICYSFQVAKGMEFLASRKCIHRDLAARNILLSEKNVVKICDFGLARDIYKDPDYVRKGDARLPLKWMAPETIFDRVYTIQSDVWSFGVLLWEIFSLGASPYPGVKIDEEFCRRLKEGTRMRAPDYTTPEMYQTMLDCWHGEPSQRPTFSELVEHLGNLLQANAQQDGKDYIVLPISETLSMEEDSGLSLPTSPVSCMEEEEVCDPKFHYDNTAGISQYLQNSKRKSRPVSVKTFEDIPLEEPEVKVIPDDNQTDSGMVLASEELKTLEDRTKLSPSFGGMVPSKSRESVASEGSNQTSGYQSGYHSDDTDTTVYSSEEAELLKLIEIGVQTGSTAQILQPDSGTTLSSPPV
Outline: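 Phosphorylation of biotinylated Flt3 peptide (500 nM) by 150 ng/ml enzyme was measured at 3 μM ATP in Mn2+-containing HEPES buffer, pH 7.5, over 120 min at room temperature. Detection used Eu-anti-P-Tyr and SA-XL-665 TR-FRET.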

BAF3-FLT3 (MIN IL3) 96 well pIC50 [1]	BAF3-FLT3 (MIN IL3) 384 well pIC50 [1]	IC50 [2] [nM]	IC50 [3] [nM]	SMILES
<5	<5	135	> 1000	COc1cc(OC)cc(N(CC2CC2)c2ccc3ncc(-c4ccn[nH]4)nc3c2)c1 [Compound 58]
<5	<5	575	> 10000	COc1cc(OC)cc(N(CC2CC2)c2ccc3ncc(-c4nccn4C)nc3c2)c1 [Compound 60]
<5	<5	> 1000	> 1000	COc1cc(OC)cc(N(CC2CC2)c2ccc3ncc(-n4nccc4C)nc3c2)c1 [Compound 62]
<5	<5	> 1000	> 1000	CCOC(=O)c1ncn(-c2cnc3ccc(N(CC4CC4)c4cc(OC)cc(OC)c4)cc3n2)c1C [Compound 65]
<5	<5	79.4	> 1000	COc1cc(OC)cc(N(CC2CC2)c2ccc3ncc(-c4cn[nH]n4)nc3c2)c1 [Compound 69]
<5	5.09	537	> 1000	COc1cc(OC)cc(N(CC2CC2)c2ccc3ncc(-c4cnnn4C)nc3c2)c1 [Compound 72]
–	<5	7.24	309	COc1cc(OC)cc(N(CC(O)CO)c2ccc3ncc(-c4ccc(N)nc4)nc3c2)c1 (centres unmarked) [Compound 74]
–	<5	398	> 1000	CNC(=O)OCCN(c1cc(OC)cc(OC)c1)c1ccc2ncc(-c3ccc(NC(=O)OC(C)(C)C)nc3)nc2c1 [Compound 80]
–	5.76	10.2	209	CNCCN(c1cc(OC)cc(OC)c1)c1ccc2ncc(-c3ccc(NC(=O)OC(C)(C)C)nc3)nc2c1 [Compound 81]
<5	<5	309	> 1000	COc1cc(OC)cc(N(CC2CC2)c2ccc3ncc(-c4nnn(C)n4)nc3c2)c1 [Compound 82]
<5	<5	> 1000	> 1000	COc1cc(OC)cc(N(CC2CC2)c2ccc3ncc(-c4nnnn4C)nc3c2)c1 [Compound 83]
<5	<5	~363	> 1000	COc1cc(OC)cc(N(CC2CC2)c2ccc3ncc(C(=O)NCCN4CCOCC4)nc3c2)c1 [Compound 96]
<5	<5	575	> 10000	COc1cc(OC)cc(N(CC2CC2)c2ccc3ncc(-c4nccs4)nc3c2)c1 [Compound 97]
<5	<5	437	> 1000	COc1cc(OC)cc(N(CC2CC2)c2ccc3ncc(Nc4nccs4)nc3c2)c1 [Compound 98]
<5	<5	> 1000	> 1000	COc1cc(OC)cc(N(CC2CC2)c2ccc3ncc(C(=O)NCc4ccc(F)cc4)nc3c2)c1 [Compound 101]
~5	<5	> 1000	> 1000	COc1cc(OC)cc(N(CC2CC2)c2ccc3ncc(Nc4nncs4)nc3c2)c1 [Compound 102]
5.17	<5	> 1000	> 1000	COc1cc(OC)cc(N(CC2CC2)c2ccc3ncc(-c4cccn4C)nc3c2)c1 [Compound 103]

BAF3-FLT3 (MIN IL3) 96 well pIC50 [1]	BAF3-FLT3 (MIN IL3) 384 well pIC50 [1]	IC50 [2] [nM]	IC50 [3] [nM]	SMILES
–	<5	389	> 1000	COc1cc(OC)cc(N(CC2CC2)c2ccc3ncc(-c4ocnc4C)nc3c2)c1 [Compound 104]
–	<5	28.2	741	COc1cc(OC)cc(N(CC2CC2)c2ccc3ncc(-n4cnc(CO)c4)nc3c2)c1 [Compound 105]
–	<5.025	5.43	178	COc1cc(OC)cc(N(CCO)c2ccc3ncc(-c4ccc(N)nc4)nc3c2)c1 [Compound 106]
–	<5	16.2	200	CNC(=O)c1cc(-c2cnc3ccc(N(CCN4CCCC4CO)c4cc(OC)cc(OC)c4)cc3n2)ccn1 (centres unmarked) [Compound 109]
–	5.04	27.5	275	COc1cc(OC)cc(N(CC2CO2)c2ccc3ncc(-c4ccc(N)nc4)nc3c2)c1 (centres unmarked) [Compound 110]
–	<5	26.3	741	COc1cc(OC)cc(N(CCO)c2ccc3ncc(-c4ccc(OC)nc4)nc3c2)c1 [Compound 111]
–	<5	85.1	> 1000	CNC(=O)c1cc(-c2cnc3ccc(N(CCNCC(F)(F)F)c4cc(OC)cc(OC)c4)cc3n2)ccn1 [Compound 113]
–	<5	7.24	135	CNc1ccc(-c2cnc3ccc(N(CCCO)c4cc(OC)cc(OC)c4)cc3n2)cn1 [Compound 116]
–	<5	8.91	263	COc1cc(OC)cc(N(CCO)c2ccc3ncc(-c4ccccc4)nc3c2)c1 [Compound 120]
–	~5.34	1.17	49	COc1cc(OC)cc(N(CCNC(C)C)c2ccc3ncc(-c4ccccc4)nc3c2)c1 [Compound 121]
–	<5	83.2	> 1000	CNC(=O)c1cc(-c2cnc3ccc(N(CCCNCC(F)(F)F)c4cc(OC)cc(OC)c4)cc3n2)ccn1 [Compound 122]
–	<5	18.6	575	COc1cc(OC)cc(N(CCO)c2ccc3ncc(-c4ccnc(C(=O)NCCCN)c4)nc3c2)c1 [Compound 123]
–	<5	6.92	102	COc1cc(OC)cc(N(CCCO)c2ccc3ncc(-c4ccc(N5CCOCC5)nc4)nc3c2)c1 [Compound 124]
–	<5	34.7	> 1000	COc1cc(OC)cc(N(CCCO)c2ccc3ncc(-c4ccc(N(C)C(=O)OC(C)(C)C)nc4)nc3c2)c1 [Compound 125]
–	<5	19.5	661	COc1cc(OC)cc(N(CCCO)c2ccc3ncc(-c4ccnc(C(=O)NCCCCN)c4)nc3c2)c1 [Compound 126]
–	<5	257	> 1000	COc1cc(OC)cc(N(CCCNCC(F)(F)F)c2ccc3ncc(-c4ccc(N(C)C(=O)OC(C)(C)C)nc4)nc3c2)c1 [Compound 127]
–	<5	182	> 1000	COc1cc(OC)cc(N(CCCO)c2ccc3ncc(-c4ccnc(NC(=O)OC(C)(C)C)c4)nc3c2)c1 [Compound 128]
